Measured values published in patent US20230257377A1, “2-AMINOQUINAZOLINONE DERIVATIVES AS METHIONINE ADENOSYLTRANSFERASE 2A INHIBITORS” (IDEAYA BIOSCIENCES, INC., priority 2020, published 2023).

biological target: T1, Human MAT2A (Homo sapiens, UniProt P31153); experiment: Phosphate Sensor Fluorescence Assay (Biologic Example A); format: biochemical; details: MAT2A inhibition, procedure of Biological Example A; 500 uM L-methionine, 500 uM ATP, 0.1% BGG
T1 construct: Human MAT2A: Cepter, amino acids 1-395 Clone ID 334, lot 00023-148; purchased Cepter clone ID 334, lot 00023-148
T1 sequence (P31153 whole entry, the tested form may be a part): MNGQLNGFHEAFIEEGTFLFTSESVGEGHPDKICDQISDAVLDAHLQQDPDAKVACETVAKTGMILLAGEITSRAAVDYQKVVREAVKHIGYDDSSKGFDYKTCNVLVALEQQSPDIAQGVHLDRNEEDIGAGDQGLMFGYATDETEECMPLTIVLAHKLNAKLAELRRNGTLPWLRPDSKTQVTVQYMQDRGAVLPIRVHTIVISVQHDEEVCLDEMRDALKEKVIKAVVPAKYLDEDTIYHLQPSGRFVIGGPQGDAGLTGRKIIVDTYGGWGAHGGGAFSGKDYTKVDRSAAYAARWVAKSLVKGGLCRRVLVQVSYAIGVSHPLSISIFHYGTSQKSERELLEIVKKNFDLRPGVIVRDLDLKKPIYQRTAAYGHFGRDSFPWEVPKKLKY
Protocol: (§1) The ability of the compound of present disclosure to inhibit MAT2A enzyme was determined using a Phosphate Sensor Fluorescence Assay described below.
(§2) MAT2A enzyme is incubated with a test compound in DMSO or DMSO and its substrates (L-methionine and ATP) in a microtiter plate. The enzymatic reaction is stopped by the addition of Working Phosphate Sensor Mixture. The plate is analyzed for fluorescence at 450 nm. The high control (DMSO with enzyme and its substrates) gives high fluorescence which represents no inhibition of enzymatic activity while the low control (DMSO with MAT2A substrates and no enzyme) gives low fluorescence which represents full inhibition of enzymatic activity.
Human MAT2A: Cepter, amino acids 1-395
Assay Buffer: 50 mM Tris, pH 7.5/50 mM KCl/10 mM MgCl2/0.01% Brij-35/1 mM DTT/0.1% BGG/40 nM PNP/6 uM 7-MEG
MAT2A: 10 nM for Cepter clone ID 329, lot 00023-123 before the addition of Working Phosphate Sensor Mixture • 5 nM for Cepter clone ID 334, lot 00023-148 before the addition of Working Phosphate Sensor Mixture
(§3) L-methionine: 500 uM before the addition of Working Phosphate Sensor Mixture
(§4) ATP: 500 uM before the addition of Working Phosphate Sensor Mixture
(§5) For the assay, a mixture of 1 mM L-methionine/1 mM ATP (2× final pre-stopped concentration) in assay buffer; MAT2A (2× final pre-stopped concentration) in Assay Buffer and Working Phosphate Sensor Mixture (1.5 uM Phosphate Sensor/30 mM EDTA in Assay Buffer, which is 3× final concentrations) were prepared. Test compounds or DMSO were added to the appropriate well suing D300e digital dispenser. 5 μl/well of Assay Buffer was added to the wells corresponding to the negative control and 5 μl/well of MAT2A was added to all the wells except for those corresponding to the negative control. After incubating the plate at room temperature for 15 minutes, 5 μl/well of the 1 mM L-methionine/1 mM ATP mixture was added to all wells. The plate was centrifuged at 1000 rpm for 1 minute and then incubated at room temperature for 1 hour. 5 μl of the Working Phosphate Sensor Mixture was added to all wells and the plate was centrifuged at 1000 rpm for 1 minute. The plate was read for fluorescence at 450 nm after exciting at 430 nm.
(§6) Percent inhibition was calculated in Chemical and Biological Information System (CBIS), (ChemInnovation Software Inc.). Curves were fitted by CBIS as % inhibition vs. log [compound concentration] using a 4-parameter inhibition model.
(§7) Fit=(A+((B−A)/(1+((C/x)^D))))

IC50 [nM] | Structure (SMILES)
10 to 200 | Nc1nc(=O)c(-c2ccccc2)c2cc(C(F)(F)F)ccn12 [Compound 1.001, 1-amino-4-phenyl-6-(trifluoromethyl)-3H-pyrido[1,2-c]pyrimidin-3-one]
10 to 200 | Cc1ccccc1-c1c(=O)nc(N)n2ccc(C(F)(F)F)cc12 [Compound 1.002, 1-amino-4-(o-tolyl)-6-(trifluoromethyl)-3H-pyrido[1,2-c]pyrimidin-3-one]
10 to 200 | Nc1nc(=O)c(-c2ccccc2Cl)c2cc(C(F)(F)F)ccn12 [Compound 1.003, 1-amino-4-(2-chlorophenyl)-6-(trifluoromethyl)-3H-pyrido[1,2-c]pyrimidin-3-one]
200 to 500 | COc1cc(C(F)(F)F)cc2c(-c3ccccc3C)c(=O)nc(N)n12 [Compound 1.004, 1-amino-8-methoxy-4-(o-tolyl)-6-(trifluoromethyl)-3H-pyrido[1,2-c]pyrimidin-3-one]

biological target: T1, Human MAT2A; experiment: Phosphate Sensor Fluorescence Assay (Biologic Example B); format: biochemical; details: MAT2A inhibition, procedure of Biological Example B; 5.8 nM MAT2A, 500 uM L-methionine, 500 uM ATP, 0.01% BGG
Protocol: as §1, §2
MAT2A: 5.8 nM MAT2A (1-395), Cepter, clone ID 334, lot 00023-148 before the addition of Working Phosphate Sensor Mixture
as §3, §4
as §5, with “(2X” for “(2×”, “3X” for “3×”, “using a Beckman Coulter Echo 550 acoustic liquid handler. 10 μL/well” for “suing D300e digital dispenser. 5 μl/well”, “10 μL/well” for “5 μl/well”, “10 μL” for “5 μl”, “nm on a Tecan Spark microplate reader.” for “nm.”
as §6, §7

IC50 [nM] | Structure (SMILES)
10 to 200 | Nc1nc(=O)c(-c2cccnc2)c2cc(C(F)(F)F)ccn12 [Compound 1.005, 1-Amino-4-(pyridin-3-yl)-6-(trifluoromethyl)-3H-pyrido[1,2-c]pyrimidin-3-one]
10 to 200 | Cn1nccc1-c1c(=O)nc(N)n2ccc(C(F)(F)F)cc12 [Compound 1.006, 1-Amino-4-(1-methyl-TH-pyrazol-5-yl)-6-(trifluoromethyl)-3H-pyrido[1,2-c]pyrimidin-3-one]
10 to 200 | Nc1nc(=O)c(-c2ccccc2)c2cc(Br)ccn12 [Compound 1.007, 1-Amino-6-bromo-4-phenyl-3H-pyrido[1,2-c]pyrimidin-3-one]
10 to 200 | Cc1ccccc1-c1c(=O)nc(N)n2ccc(Br)cc12 [Compound 1.008, 1-Amino-6-bromo-4-(o-tolyl)-3H-pyrido[1,2-c]pyrimidin-3-one]
1000 to 10000 | CC(=O)Nc1nc(=O)c(-c2ccccc2)c2cc(C(F)(F)F)ccn12 [Compound 1.009, N-(3-oxo-4-phenyl-6-(trifluoromethyl)-3H-pyrido[1,2-c]pyrimidin-1-yl)acetamide]
10 to 200 | CCCNc1nc(=O)c(-c2ccccc2)c2cc(C(F)(F)F)ccn12 [Compound 1.010, 4-Phenyl-1-(propylamino)-6-(trifluoromethyl)-3H-pyrido[1,2-c]pyrimidin-3-one]
10 to 200 | CNc1nc(=O)c(-c2ccccc2)c2cc(C(F)(F)F)ccn12 [Compound 1.011, 1-(Methylamino)-4-phenyl-6-(trifluoromethyl)-3H-pyrido[1,2-c]pyrimidin-3-one]
